Data set [1] relates to CHO cell line tTApuro 6.6 transfected with HAβ1L215H cDNA. Put plainly: Cloning efficiencies of HAβ1L215H transfected cells under selective conditions. To be noted: for Number of colonies relative to G418+tetracycline, arbitrarily set at 100 / Cloning efficiency (colonies under selective conditions divided by colonies in αMEM+tetracycline): 2 mg/ml G418 or 0.2 μg/ml paclitaxel; for Cloning efficiency (colonies under selective conditions divided by colonies in αMEM+tetracycline): 6–10 d. It is filed as cell-based, Chinese hamster. The procedure:
(§1) The ability of β-tubulin mutations to confer paclitaxel resistance was evaluated in 2 ways. In the first, stably transfected cell lines expressing mutant HAβ1-tubulin were seeded at approximately 100 cells/well in replicate wells of a 24-well dish containing increasing concentrations of paclitaxel. The assay was carried out in duplicate with only one set containing 1 μg/ml tetracycline. After 6–7 d, the medium was removed and the resistant colonies were stained with a solution of 0.1% methylene blue as previously described (Cabral, F., Sobel, M. E., and Gottesman, M. M. (1980) Cell 20, 29–36). In a second assay, aliquots (˜7×10^4 cells for selective, and ˜100 cells for non-selective conditions) from total transfected cell populations were seeded into duplicate 6-well dishes containing normal medium (non-selective), 2 mg/ml G418, or 0.2 μg/ml paclitaxel, each with or without 1 μg/ml tetracycline. After the appearance of visible colonies (6–7 d), one duplicate dish was stained with methylene blue and colonies were counted. Cells in the second dish were trypsinized and replated onto glass coverslips for immunofluorescence observation.
To rule out the possibility that we may have biased the results by examining specific clones of mutant HAβ1-tubulin expressing cells, we also tested the relative abilities of G418 and paclitaxel to select mutant HAβ1-tubulin positive cells from the total transfected cell populations. We reasoned that paclitaxel should be a powerful agent for selection of mutant HAβ1-tubulin expressing cells if, and only if, the mutant tubulin is capable of conferring resistance to the drug. To test this prediction, aliquots from an HAβ1L215H transfected cell population were grown under 6 different conditions: normal medium, medium containing 2 mg/ml G418, and medium containing 0.2 μg/ml paclitaxel, each in the presence or absence of 1 μg/ml tetracycline. Using the number of colonies obtained under nonselective conditions (normal medium containing tetracycline) as a control, the relative cloning efficiencies under the various selective conditions are summarized in Table II.
In Table II, CHO cell line tTApuro 6.6 was transfected with HAβ1L215H cDNA. At 24 h post-transfection, the cells were trypsinized and replated in normal medium (αMEM), medium containing 2 mg/ml G418, or medium containing 0.2 μg/ml paclitaxel, all either in the presence or absence of 1 μg/ml tetracycline. After 6–10 d (when visible colonies were seen) the cells were stained with methylene blue and the surviving colonies were counted. The cloning efficiency was calculated as the number of colonies obtained under selective conditions (G418 or paclitaxel) divided by the number of colonies obtained under nonselective conditions (αMEM+tetracycline). Numbers in parentheses are the number of colonies obtained relative to G418+tetracycline which was arbitrarily set at 100.

In data set [2] the test system is HAβ1L215H transfected CHO cells. Put plainly: Immunofluorescence for HA tag in drug-selected HAβ1L215H transfected populations. It is filed as cell-based, Chinese hamster. As to the method: FIG. 8 depicts paclitaxel selects for transfected cells that express mutant HAβ1-tubulin. Cells transfected with HAβ1L215H cDNA were selected for resistance to G418 (A, B) or paclitaxel (C, D) either in the presence (A, C) or absence (B, D) of 1 μg/ml tetracycline. The total resistant cell population was then trypsinized and replated for 24 h in medium without tetracycline or paclitaxel before processing for immunofluorescence with an antibody specific for the HA tag. Arrows in B and C indicate cells that were positive for HAβ1L215H-tubulin expression. Approximately 50% of the cells in panel A, and 100% of the cells in panel D were positive for expression. Bar=10 μm.
Cells were grown on glass coverslips to approximately 70% of confluence and fixed in methanol (−20° C.) for at least 10 min as previously described (Gonzalez-Garay, M. L., and Cabral, F.). The primary antibody used for most experiments was mouse monoclonal 12CA5 (Boehringer Mannheim Corp., Indianapolis, Ind.), specific for the HA tag. This was followed by fluorescein conjugated goat antimouse IgG (Cappel). […]
The ability of β-tubulin mutations to confer paclitaxel resistance was evaluated in 2 ways. […] After the appearance of visible colonies (6–7 d), one duplicate dish was stained with methylene blue and colonies were counted. […]

For data set [3], the system named is CHO cells transfected with HAβ1, HAβ1G38E, HAβ1L217R or HAβ1L228F cDNAs. Briefly: Direct selection of paclitaxel resistant transfected cells. In kind it is cell-based, Chinese hamster. The procedure: as §1
For data set [4], the system named is paclitaxel resistant human ovarian cells. To be noted: gradually selected to higher levels of resistance; cited from earlier work.
The subject of data set [5] is paclitaxel dependent cell line Tax-18. Briefly: Cross-resistance growth assay in 24 well dishes, Tax-18. The settings on record: for Rescue of growth of drug-dependent Tax-18: no growth without drug. The procedure:
Wild-type CHO cells (WT), Taxol resistant mutant Tax 5-6 (Tax^R), and Taxol dependent mutant Tax 18 (Tax^D) were seeded into replicate wells of 24 well dishes at a density of approximately 100 cells per well in increasing concentrations of Taxol or Taxotere as indicated (in μg/ml). The cells were grown 7 days and then stained with methylene blue.

The test system of data set [6] is CHO cells transfected with HAβ1, HAβ1L215H, HAβ1L217R or HAβ1L228F. Put plainly: Paclitaxel dose response of stably transfected cell lines with or without tetracycline (24-well, methylene blue). It is filed as cell-based, Chinese hamster. The settings on record: for Sensitivity to paclitaxel: cells transfected with mutant HAβ1-tubulin. The procedure:
FIG. 7 depicts mutant HAβ1-tubulins confer paclitaxel resistance. Approximately 100 cells were seeded into replicate wells of 24-well dishes containing the indicated concentrations of paclitaxel (in ng/ml) with (“+”) or without (“−”) 1 μg/ml tetracycline. The cells were allowed to grow for 6–7 d and were then stained with methylene blue. The cell lines came from transfections with HAβ1 (A), HAβ1L215H (B), HAβ1L217R (C), or HAβ1L228F (D).
as §1
Measurement of drug resistance using a standard cloning efficiency assay was complicated by the observation that clones producing moderate to high levels of mutant HAβ1-tubulin grew poorly and produced many multinucleated cells. This problem was circumvented in 2 different ways. The first came from an observation that among the multinucleated cells, there were some cells that still looked normal. […]

Data set [7] has as its system Taxol resistant mutant Tax 5-6. Briefly: Cross-resistance growth assay in 24 well dishes, Tax 5-6. It is filed as cell-based, Chinese hamster. To be noted: about 100 cells per well, grown 7 days.
For data set [8], the system named is KB3 cervical carcinoma cell line. The settings on record: preliminary evidence.
The test system of data set [9] is Paclitaxel Resistant CHO Cells.
Procedure: Metabolic labeling was for 1 h in methionine-free MEM (ICN Biomedicals Inc., Costa Mesa, Calif.) containing 30 μCi/ml Tran ^35S-label (1,000 Ci/mmol; ICN Biomedicals).
The test system of a further data set is wild-type CHO cells. Put plainly: Lethality of paclitaxel to wild-type cells. The settings on record: tetracycline-free medium. It is filed as cell-based, Chinese hamster. The procedure: Measurement of drug resistance using a standard cloning efficiency assay was complicated by the observation that clones producing moderate to high levels of mutant HAβ1-tubulin grew poorly and produced many multinucleated cells. This problem was circumvented in 2 different ways. The first came from an observation that among the multinucleated cells, there were some cells that still looked normal. […] To select these cells, clones transfected with mutant HAβ1-tubulin were incubated in tetracycline-free medium containing a concentration of paclitaxel (0.2 μg/ml) that is lethal to wild-type cells. Multiple individual colonies were selected and tested for their dose response to paclitaxel; representative results are shown in FIG. 7. […] Thus HAβ1, HAβ1L215H, HAβ1L217R, and HAβ1L228F expressing cells were all tested for paclitaxel sensitivity in the presence or absence of tetracycline.

Data set [10] relates to paclitaxel-resistant cells. The settings on record: frequently observed; cited from earlier work.

“Also recorded” adds a separate entry of the source. Read-outs that look alike come from different tables or passages of the source.

Take `CN[C@@H]1[C@@H](O)[C@@H](O[C@@H]2[C@@H](O)[C@H](O[C@H]3O[C@H]([C@@H](C)O)[C@@H](O)[C@H](O)[C@H]3N)[C@@H](N)C[C@H]2N)OC[C@]1(C)O` [G418]: in data set [1] (+Tetracycline 1 μg/ml), the “Number of colonies relative to G418+tetracycline, arbitrarily set at 100” value was determined as 100 and the “Cloning efficiency (colonies under selective conditions divided by colonies in αMEM+tetracycline)” value is given as 1.3 × 10^−3. Besides, the “Lowering of selection efficiency under inducing conditions (no tetracycline) versus with tetracycline” value in data set [1] (G418 2 mg/ml) is recorded as “about 40%”. In addition, in data set [1] (−Tetracycline), the “Number of colonies relative to G418+tetracycline, arbitrarily set at 100” value turned out to be 60 and the “Cloning efficiency (colonies under selective conditions divided by colonies in αMEM+tetracycline)” value is given as 7.9 × 10^−4. Further, the “HA-positive cells in the selected population” value in data set [2] (selected under inducing conditions (no tetracycline)) was under 10%.
Take `CC(=O)O[C@H]1C(=O)[C@@]2(C)[C@H]([C@H](OC(=O)c3ccccc3)[C@]3(O)C[C@H](OC(=O)[C@H](O)[C@@H](NC(=O)c4ccccc4)c4ccccc4)C(C)=C1C3(C)C)[C@]1(OC(C)=O)CO[C@@H]1C[C@@H]2O` [Paclitaxel, paclitaxel]: the “Paclitaxel resistant cells obtained by direct selection” value in [3] (HAβ1L217R and HAβ1L228F cDNAs) was “many paclitaxel resistant colonies”; in data set [3] (HAβ1 or HAβ1G38E cDNAs, repeated three times), “no paclitaxel resistant cells were obtained”. Also, the “Fold resistance versus unselected cells” value in data set [4] is 24 fold. Moreover, the “Selection under inducing conditions less efficient than G418 with tetracycline” value in [1] (0.2 μg/ml paclitaxel, no tetracycline) was 5 times. The “Fewer colonies under non-inducing conditions than under inducing conditions” value in data set [1] (0.2 μg/ml paclitaxel, with tetracycline) was determined as 18 fold. Also, the results for the “Number of colonies relative to G418+tetracycline, arbitrarily set at 100” value in data set [1] (+Tetracycline 1 μg/ml) and in [1] (−Tetracycline) were 1 and 18, respectively. Also, the “Cloning efficiency (colonies under selective conditions divided by colonies in αMEM+tetracycline)” value in data set [1] (+Tetracycline 1 μg/ml) was 1.4 × 10^−5; in data set [1] (−Tetracycline), 2.3 × 10^−4. The “Rescue of growth of drug-dependent Tax-18” value (“Rescue” for short) in data set [5] (grown 7 d) is given as “rescued”. For the same compound, the “Sensitivity to paclitaxel, HAβ1 expressed versus not expressed” value in data set [6] (HAβ1 (wild-type) transfected cells, with or without tetracycline) was “same sensitivity”. Moreover, the results for the Sensitivity to paclitaxel result in data set [6] (grown with tetracycline) and in data set [6] (grown without tetracycline) were “wild-type paclitaxel sensitivity” and “clear resistance”, respectively. Besides, the “HA-positive cells in the selected population” value in [2] (selected under non-inducing conditions (with tetracycline), assayed following induction) was under 5%. In addition, in data set [7], the “Resistance of Tax 5-6 compared to wild-type cells” value is “more resistant”. Moreover, in [8], the “Drug sensitivity of paclitaxel-selected mutant KB3 cells” value is recorded as “resistant”. Also, the “Resistant or Dependent” value in data set [9] (cell line Tax 1–4, β-tubulin L215H) is reported as “R”; in data set [9] (cell line Tax 1–19, β-tubulin L215R), “R”; in data set [9] (cell line Tax 4–9, β-tubulin L215H), “R”; in data set [9] (cell line Tax 6–9, β-tubulin L217R), “R”. In addition, the “Fold resistance to paclitaxel of cell lines selected in one step” value in data set [9] (single-step selection with a single lethal dose of paclitaxel) is on record as 2-3 fold. The “Concentration lethal to wild-type cells” value in the data set on wild-type CHO cells stood at 0.2 µg/mL.
For the compound `CC(=O)O[C@@]12CO[C@@H]1C[C@H](O)[C@@]1(C)C(=O)[C@H](O)C3=C(C)[C@@H](OC(=O)[C@H](O)[C@@H](NC(=O)OC(C)(C)C)c4ccccc4)C[C@@](O)([C@@H](OC(=O)c4ccccc4)[C@H]21)C3(C)C` [Taxotere], the “Resistance of Tax-18 to cytotoxic effects compared to wild-type cells” value in [5] is given as “resistant”. Moreover, the “Rescue” value in data set [5] (grown 7 d) was “rescued”. Also, the “Resistance of Tax 5-6 compared to wild-type cells” value in data set [7] is reported as “more resistant”.
With `COc1cc2c(c(OC)c1OC)-c1ccc(OC)c(=O)cc1[C@@H](NC(C)=O)CC2` [colchicine], in data set [10], the “Sensitivity of paclitaxel-resistant cells to the drug” value (“Sensitivity … to the drug” for short) is reported as “increased sensitivity”.
`C/C(=C\c1csc(C)n1)[C@@H]1C[C@@H]2O[C@]2(C)CCC[C@H](C)[C@H](O)[C@@H](C)C(=O)C(C)(C)[C@@H](O)CC(=O)O1` [epothilone-B]: the “Resistance of Tax-18 to cytotoxic effects compared to wild-type cells” value in [5] (grown 7 d, stained with methylene blue) is “more resistant”. Moreover, the “Rescue” value in [5] (grown 7 d) is recorded as “rescued”.
`CC[C@]1(O)C[C@@H]2CN(CCc3c([nH]c4ccccc34)[C@@](C(=O)OC)(c3cc4c(cc3OC)N(C)[C@H]3[C@@](O)(C(=O)OC)[C@H](OC(C)=O)[C@]5(CC)C=CCN6CC[C@]43[C@@H]65)C2)C1` [vinblastine]: in data set [10], the “Sensitivity … to the drug” value was “increased sensitivity; also recorded: hypersensitive”. Also, the “Drug sensitivity of paclitaxel-selected mutant KB3 cells” value in [8] is “hypersensitive”.
As to `CC[C@]1(O)C[C@H]2CN(CCc3c([nH]c4ccccc34)[C@@](C(=O)OC)(c3cc4c(cc3OC)N(C=O)[C@H]3[C@@](O)(C(=O)OC)[C@H](OC(C)=O)[C@]5(CC)C=CCN6CC[C@]43[C@@H]65)C2)C1` [vincristine], the “Sensitivity … to the drug” value in data set [10] is listed as “hypersensitive”.

These data come from patent publication US7179588B1, “Assay for the detection of paclitaxel resistant cells in human tumors” (Board of Regents of the University of Texas System, priority 1999, dated 2007).
